From patent US20160046616A1, “NRF2 SMALL MOLECULE INHIBITORS FOR CANCER THERAPY” (THE JOHNS HOPKINS UNIVERSITY, priority 2013, published 2016)

Columns and labels:
[1] = test system: A549 NRF2-ARE-Fluc stable cell line; test: A549 Nrf2 assay: NRF2-ARE firefly luciferase reporter gene assay; format: cell-based; conditions: Homo sapiens, read-out: Potency of inhibition, A549
How it was run: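 A549 cells (Keap1 loss-of-function, constitutive NRF2) stably carrying ARE-driven firefly luciferase; compound treatment 18–24 h at 37 °C, 0.46% DMSO final.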

[2] = test system: H1437 NRF2-ARE-Fluc stable cell line; test: H1437 Nrf2 assay: NRF2-ARE firefly luciferase reporter gene assay; format: cell-based; conditions: Homo sapiens, NCI-H1437, H1437 NRF2-ARE-Fluc stable cell line; read-out: Potency of inhibition, H1437

Compound | IC50 [1] | IC50 [2]
Cc1ccccc1C(=O)N1CCc2cc(-c3nc(NC(=O)CC4CCN(C)CC4)sc3C)ccc21 [Compound 75] | 5 to 25 µM | 5 to 25 µM
O=C(Nc1ncc(Cc2ccc(C(F)(F)F)cc2)s1)c1ccc(-c2ccc([N+](=O)[O-])cc2)o1 [Compound 22] | 5 to 25 µM | 5 to 25 µM
Cc1ccccc1S(=O)(=O)N1CCc2cc(-c3nc(NC(=O)Cc4cccnc4)sc3C)ccc21 [Compound 130] | < 5 µM | < 5 µM
Cc1sc(NC(=O)Cc2ccc3c(c2)OCO3)nc1-c1ccc2c(c1)CCN2C(=O)CN(C)C [Compound 180] | 5 to 25 µM | > 25 µM
Cc1sc(NC(=O)Cc2ccc3c(c2)OCO3)nc1-c1ccc2c(c1)CCN2C(=O)c1ccccc1Cl [Compound 116] | < 5 µM | > 25 µM
O=C(Nc1ccc(S(=O)(=O)N2CCOCC2)cc1)c1ccc(CN2CCC(c3ccccc3)CC2)cc1 [Compound 205] | < 5 µM | < 5 µM
CCC(=O)N1c2ccc(S(=O)(=O)N3CCN(c4ccc([N+](=O)[O-])cc4)CC3)cc2CC1C (centres unmarked) [Compound 40] | < 5 µM | < 5 µM
O=C(Nc1ncc(CN2CCOCC2)s1)c1ccc(-c2cccc([N+](=O)[O-])c2)o1 [Compound 81] | 5 to 25 µM | 5 to 25 µM
Cc1ccccc1C(=O)N1CCc2cc(-c3nc(NC(=O)CC4CCOCC4)sc3C)ccc21 [Compound 84] | 5 to 25 µM | 5 to 25 µM
O=C(Nc1ccc(S(=O)(=O)N2CCNCC2)cc1)c1ccc(CN2CCc3ccccc3C2)cc1 [compound 154] | 5 to 25 µM | > 25 µM
O=C(Nc1ncc(CN2CCCCC2)s1)c1ccc(-c2cccc([N+](=O)[O-])c2)o1 [Compound 87] | > 25 µM | > 25 µM
O=C(Nc1ccc(S(=O)(=O)N2CCOCC2)cc1)c1ccc(CN2CCCCC2)cc1 [compound 179] | 5 to 25 µM | > 25 µM
Cc1sc(NC(=O)Cc2ccc3c(c2)OCO3)nc1-c1ccc2c(c1)CCN2C(=O)c1c(Cl)cnn1C [Compound 187] | < 5 µM | < 5 µM
O=C(Nc1ncc(Cc2ccc(C(F)(F)F)cc2)s1)c1ccn(-c2cccnc2)n1 [Compound 175] | 5 to 25 µM | 5 to 25 µM
O=C(Nc1ncc(Cc2ccc(C(F)(F)F)cc2)s1)c1ccc(-c2cccnc2)o1 [Compound 27] | 5 to 25 µM | < 5 µM
Cc1ccccc1C(=O)N1CCc2cc(-c3cccc(NC(=O)Cc4ccc5c(c4)OCO5)c3)ccc21 [Compound 31] | 5 to 25 µM | > 25 µM
Cc1ccccc1C(=O)N(C)c1ccc(-c2cccc(NC(=O)Cc3ccccc3)n2)cc1 [Compound 68] | 5 to 25 µM | 5 to 25 µM
Cc1ccccc1C(=O)N1CCc2cc(-c3csc(NC(=O)Cc4ccc5c(c4)OCO5)n3)ccc21 [Compound 2] | 5 to 25 µM | 5 to 25 µM
O=C(Nc1ccc(N2CCOCC2)cc1)c1ccc(CN2CCc3ccccc3C2)cc1 [compound 149] | < 5 µM | > 25 µM
Cc1ccccc1C(=O)N1CCc2cc(Br)ccc21 [Compound 107, (5-bromoindolin-1-yl)(o-tolyl)methanone] | 5 to 25 µM | > 25 µM
Cc1sc(NC(=O)Cc2ccc3c(c2)OCO3)nc1-c1ccc2c(c1)CCN2 [Compound 17, 2-(Benzo[d][1,3]dioxol-5-yl)-N-(4-(indolin-5-yl)-5-methylthiazol-2-yl)acetamide] | 5 to 25 µM | > 25 µM
Cc1ccccc1CC(=O)Nc1nc(-c2ccc3c(c2)CCN3S(=O)(=O)c2ccccc2C)c(C)s1 [Compound 128] | < 5 µM | < 5 µM
Cc1cc(Cn2ccc(C(=O)Nc3ncc(Cc4ccc(C(F)(F)F)cc4)s3)n2)ccn1 [Compound 191] | < 5 µM | < 5 µM
COc1ccc(CC(=O)Nc2nc(-c3ccc4c(c3)CCN4C(=O)C3CC3)c(C)s2)cc1 [Compound 195] | < 5 µM | 5 to 25 µM
Cc1ccc(CC(=O)Nc2nc(-c3ccc4c(c3)CCN4C(=O)c3ccccc3C)c(C)s2)cc1C [Compound 10] | 5 to 25 µM | > 25 µM
